Laboratory results published in patent US20240294499A1, “TARGETED PROTEIN DEGRADATION USING BIFUNCTIONAL COMPOUNDS THAT BIND UBIQUITIN LIGASE AND TARGET MCL-1 PROTEIN” (Captor Therapeutics S.A., priority 2021, published 2024).

What was measured:
Type in all cases: cell-based
[1] = system: DMS 114 cells; assay: Cell viability assay (CellTiter-Glo), DMS 114; conditions: 72 hours incubation, 10% FBS
Excerpt: The effect of various compounds of the invention on the viability of DMS 114 cell line was investigated, using the CTG protocol described below.
DMS 114 cell line is derived from small-cell lung cancer, which is described in the literature as MCL-1 dependent lines [Yasuda Y et al. Cell Death & Disease 2020; 11: 177].
DMS 114 cells were detached with trypsin and then resuspended in growth medium containing 10% FBS and counted. Cell suspension was then adjusted to 5×10^4 cells/ml using growth medium containing 10% FBS. Afterwards, […] were seeded on 384-well plates (50 μl). Plates were then placed in the incubator overnight until treated. Next day, compounds were added using ECHO 555 liquid handler. Compound concentrations used in this assay: 1/3 dilutions starting at 30 uM (9 to 12 points).
After 72 hours of incubation, cell viability was evaluated using CellTiter-Glo Luminescent Cell Viability Assay (Promega, cat #G7572). Luminescence signal was measured using a CLARIOstar Plus Multi-Mode Microplate Reader (574-590 nm).

[2] = system: iCELL Cardiomyocytes; assay: Cardiac safety: caspase 3 and 7 activation (Caspase-Glo 3/7) in iCELL Cardiomyocytes
Excerpt: The effect of various compounds of the invention and a reference compound AZD5991 on cardiac safety was investigated by the evaluation of caspase 3 and 7 activation using Caspase-Glo 3/7 Assay (Promega; G8092) in iCELL™ Cardiomyocytes from FUJIFILM Cellular Dynamics (Catalog number: 11713). In the Caspase-Glo® 3/7 Assay, the luminescence (measured as Relative Luciferase Units, RLU) is proportional to the amount of caspase activity present in each sample.
The assay is initiated by thawing and seeding iCell® Cardiomyocytes as specified in the User Guide. After 48 hours, the cells are washed to remove unattached cells and debris and immediately treated with compounds or DMSO diluted in the maintenance medium (FCDI; cat: M1003). Compound concentrations used in this assay: 7 points 1/3 dilution curve starting at 100 uM. After 24 hours of incubation with compounds, caspase activity is measured by the addition of the Caspase-Glo® 3/7 Reagent followed by the luminescence measurement.
The analysis of the results is performed by calculation of the fold change in caspase 3/7 activity at a given compound concentration. Fold change is calculated with the formula: […]
where: • RLU Xi is the Relative Luciferase Units of sample I; • RLU BG is the Background Relative Luciferase Units; • RLU C is the Relative Luciferase Units of Control (DMSO).
The experiments were performed in technical duplicates.

[3] = system: MV-4-11 cells; assay: Induction of apoptosis in cancer cells, flow cytometry (Annexin V/PI); conditions: MV-4-11 cells, 1, 3, 10, 30 and 100 nM, 24 hours
Method: The effect of compound 204 of the invention MV-4-11 cells was investigated using the following protocol.
MV-4-11 cells were seeded on 24-well plates (1 ml) in growth medium containing 1% FBS. Immediately after seeding, compounds in appropriate concentrations were added directly to the cell culture medium. After 24 hours incubation, cells were washed twice with cold DPBS and the staining was performed using the FITC Annexin V Apoptosis Detection Kit I (BD Pharmingen; 556547). Samples were then analyzed by flow cytometry (LSR Fortessa X-20; BD Biosciences) within 1 hr. Results were evaluated using FlowJo (V10) software.
FIG. 6 presents the induction of apoptosis in MV-4-11 cells treated with 204 at 1, 3, 10, 30, and 100 nM concentration for 24 hours, as indicated.

Molecule `Cc1nn2c(c1-c1c(Cl)ccc3c(CCCOc4cccc5cc(F)ccc45)c(C(=O)O)n(CCN4CCN(C(=O)COc5cccc6c5CN(C5CCC(=O)NC5=O)C6=O)CC4)c13)COCC2` (centres unmarked) [Compound 346, 6-Chloro-1-(2-(4-(2-((2-(2,6-dioxopiperidin-3-yl)-1-oxoisoindolin-4-yl)oxy)acetyl)piperazin-1-yl)ethyl)-3-(3-((6-fluoronaphthalen-1-yl)oxy)propyl)-7-(2-methyl-6,7-dihydro-4H-pyrazolo[5,1-c][1,4]oxazin-3-yl)-1H-indole-2-carboxylic acid] has an IC50 ([1]; Homo sapiens, DMS-114, 72 h, read-out: Average pIC50 by molecule DMS 114 (converted)) of no more than 3.16 µM.

For `Cc1nn(C)c(C)c1-c1c(Cl)ccc2c(CCCOc3cccc4cc(F)ccc34)c(C(=O)O)n(CCN3CCN(C(=O)COc4cccc5c4CN(C4CCC(=O)NC4=O)C5=O)CC3)c12` (centres unmarked) [Compound 220, 6-chloro-1-{2-[4-(2-{[2-(2,6-dioxopiperidin-3-yl)-1-oxo-2,3-dihydro-1H-isoindol-4-yl]oxy}acetyl)piperazin-1-yl]ethyl}-3-{3-[(6-fluoronaphthalen-1-yl)oxy]propyl}-7-(1,3,5-trimethyl-1H-pyrazol-4-yl)-1H-indole-2-carboxylic acid], the “Average pIC50 by molecule DMS 114” value [1] was no less than 6.5.

For `Cc1nn(C)c(C)c1-c1c(Cl)ccc2c(CCCOc3cccc4ccccc34)c(C(=O)O)n(CCN3CCN(C(=O)COc4cccc5c4C(=O)N(C4CCC(=O)NC4=O)C5=O)CC3)c12` (centres unmarked) [Compound 204, 6-chloro-1-(2-(4-(2-((2-(2,6-dioxopiperidin-3-yl)-1,3-dioxoisoindolin-4-yl)oxy)acetyl)piperazin-1-yl)ethyl)-3-(3-(naphthalen-1-yloxy)propyl)-7-(1,3,5-trimethyl-1H-pyrazol-4-yl)-1H-indole-2-carboxylic acid], the “Fold change at 1.2 uM (caspase 3/7 activity in cardiomyocytes)” value ([2]; 1.2 uM, 24 hours incubation, vs DMSO) was no more than 1.5 ± 0.2, the “activity in caspase activity assay in cardiomyocytes” value ([2]; as opposed to reference compound AZD5991) was “little to no activity” and the “population of late apoptotic/cell death (Annexin+/PI+) cells” value [3] was “concentration dependent increase”.
